Experimental data: BindingDB's records for doi:10.1111/j.1432-1033.1991.tb15734.x (Universit&Eacute, 1991)
“And” between values parts separate entries of the source, which are not always exact repeats. Equal values may be shown once. Non-standard residues stand in square brackets, D forms with d. Residues, ends and D or L forms follow the SMILES beside them. ξ: configuration not given here. Ile(3ξ) = CCC(C)[C@H](N)C(=O)O

Tests used:
[1] = target: T1, VIP peptides (Homo sapiens, UniProt P01282)
T1 sequence (P01282 whole entry): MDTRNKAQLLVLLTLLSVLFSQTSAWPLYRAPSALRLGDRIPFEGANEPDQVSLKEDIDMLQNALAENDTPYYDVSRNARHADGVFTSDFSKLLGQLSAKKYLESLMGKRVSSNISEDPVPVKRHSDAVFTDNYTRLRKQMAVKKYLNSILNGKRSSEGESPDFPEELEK

[2] = target: T2, VIP peptides (Rattus norvegicus, UniProt P01283)
T2 sequence (P01283 whole entry): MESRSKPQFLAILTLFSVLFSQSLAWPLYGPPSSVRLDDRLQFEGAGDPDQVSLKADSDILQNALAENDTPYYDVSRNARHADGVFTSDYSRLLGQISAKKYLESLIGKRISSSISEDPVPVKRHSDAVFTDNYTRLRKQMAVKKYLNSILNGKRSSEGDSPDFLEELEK

Compound	Ki [1] [µM]	Ki [2]
CC[C@H](C)[C@H](NC(=O)[C@H](CO)NC(=O)[C@H](CC(N)=O)NC(=O)[C@H](CC(C)C)NC(=O)[C@H](Cc1ccc(O)cc1)NC(=O)[C@H](CCCCN)NC(=O)[C@H](CCCCN)NC(=O)[C@@H](NC(=O)[C@H](C)NC(=O)[C@H](CCSC)NC(=O)[C@H](CCC(N)=O)NC(=O)[C@H](CCCCN)NC(=O)[C@H](CCCN=C(N)N)NC(=O)[C@H](CC(C)C)NC(=O)[C@H](CCCN=C(N)N)NC(=O)[C@@H](NC(=O)[C@H](Cc1ccc(O)cc1)NC(=O)[C@H](CC(N)=O)NC(=O)[C@H](CC(=O)O)NC(=O)[C@@H](NC(=O)[C@H](Cc1ccccc1)NC(=O)[C@@H](NC(=O)[C@H](C)NC(=O)[C@H](CC(=O)O)NC(=O)[C@H](CO)NC(=O)[C@@H](N)Cc1cnc[nH]1)C(C)C)[C@@H](C)O)[C@@H](C)O)C(C)C)C(=O)N[C@@H](CC(C)C)C(=O)N[C@@H](CC(N)=O)C(=O)O [CAS_37221-79-7]	0.15	–
[C][C][C]([C])[C@H]([N]C(=O)[C][N]C(=O)[C@H]([C][C]C([O])=O)[N]C(=O)[C@@H]([N])[C][O])C(=O)[N][C@@H]([C]c1ccccc1)C(=O)[N][C@H](C(=O)[N][C@@H]([C]C([O])=O)C(=O)[N][C@@H]([C][O])C(=O)[N][C@@H]([C]c1ccc([O])cc1)C(=O)[N][C@@H]([C][O])C(=O)[N][C@@H]([C][C][C]N=C([N])[N])C(=O)[N][C@@H]([C]c1ccc([O])cc1)C(=O)[N][C@@H]([C][C][C]N=C([N])[N])C(=O)[N][C@@H]([C][C][C][C][N])C(=O)[N][C@@H]([C][C]C([N])=O)C(=O)[N][C@@H]([C][C]S[C])C(=O)[N][C@@H]([C])C(=O)[N][C@@H]([C]([C])[C])C(=O)[N][C@@H]([C][C][C][C][N])C(=O)[N][C@@H]([C][C][C][C][N])C(=O)[N][C@@H]([C]c1ccc([O])cc1)C(=O)[N][C@@H]([C][C]([C])[C])C(=O)[N][C@@H]([C])C(=O)[N][C@@H]([C])C(=O)[N][C@@H]([C]([C])[C])C(=O)[N][C@@H]([C][C]([C])[C])C([N])=O)[C@@H]([C])[O] [PACAP(2-27)]	0.02	0.4 µM and 0.04 µM
CC[C@H](C)[C@H](NC(=O)CNC(=O)[C@H](CC(=O)O)NC(=O)[C@H](CO)NC(=O)[C@@H](N)Cc1cnc[nH]1)C(=O)N[C@@H](Cc1ccccc1)C(=O)N[C@H](C(=O)N[C@@H](CC(=O)O)C(=O)N[C@@H](CO)C(=O)N[C@@H](Cc1ccc(O)cc1)C(=O)N[C@@H](CO)C(=O)N[C@@H](CCCNC(=N)N)C(=O)N[C@@H](Cc1ccc(O)cc1)C(=O)N[C@@H](CCCNC(=N)N)C(=O)N[C@@H](CCCCN)C(=O)N[C@@H](CCC(N)=O)C(=O)N[C@@H](CCSC)C(=O)N[C@@H](C)C(=O)N[C@H](C(=O)N[C@@H](CCCCN)C(=O)N[C@@H](CCCCN)C(=O)N[C@@H](Cc1ccc(O)cc1)C(=O)N[C@@H](CC(C)C)C(=O)N[C@@H](C)C(=O)N[C@@H](C)C(=O)N[C@H](C(=O)N[C@@H](CC(C)C)C(=O)NCC(=O)N[C@@H](CCCCN)C(=O)N[C@@H](CCCNC(=N)N)C(=O)N[C@@H](Cc1ccc(O)cc1)C(=O)N[C@@H](CCCCN)C(=O)N[C@@H](CCC(N)=O)C(=O)N[C@@H](CCCNC(=N)N)C(=O)N[C@H](C(=O)N[C@@H](CCCCN)C(=O)N[C@@H](CC(N)=O)C(=O)N[C@@H](CCCCN)C(N)=O)C(C)C)C(C)C)C(C)C)[C@@H](C)O [PACAP]	–	0.0009 µM and 0.0003 µM
H-HSDAVFTDNYTRLRKQMAVKKYLAAVL-NH2 [VIP-PACAP]	0.1	–
H-HSDAVFTDNYTRYRKQMAVKKYLNSILN-OH [[Tyr13]VIP]	0.04	–
H-HSDAVFTDSYTRLRKQMAVKKYLNSILN-NH2 [[Ser9]VIP]	0.05	–

Continued by falling Ki [1], values first:

Ki [1] [µM]	Ki [2]	Compound
0.015	–	H-HSDAVFTDSYTRYRKQMAVKKYLNSILN-NH2 [[Ser9,Tyr13]VIP]
0.008	–	H-HSDGIFTDSYTRLRKQMAVKKYLNSILN-OH [PACAP-VIP]
0.002	0.01 µM and 0.004 µM and 0.03 µM	CCC(C)[C@H](NC(=O)CNC(=O)[C@H](CC(=O)O)NC(=O)[C@@H](N)CO)C(=O)N[C@@H](Cc1ccccc1)C(=O)N[C@H](C(=O)N[C@@H](CC(=O)O)C(=O)N[C@@H](CO)C(=O)N[C@@H](Cc1ccc(O)cc1)C(=O)N[C@@H](CO)C(=O)N[C@@H](CCCN=C(N)N)C(=O)N[C@@H](Cc1ccc(O)cc1)C(=O)N[C@@H](CCCN=C(N)N)C(=O)N[C@@H](CCCCN)C(=O)N[C@@H](CCC(N)=O)C(=O)N[C@@H](CCSC)C(=O)N[C@@H](C)C(=O)N[C@H](C(=O)N[C@@H](CCCCN)C(=O)N[C@@H](CCCCN)C(=O)N[C@@H](Cc1ccc(O)cc1)C(=O)N[C@@H](CC(C)C)C(=O)N[C@@H](C)C(=O)N[C@@H](C)C(=O)N[C@H](C(=O)N[C@@H](CC(C)C)C(=O)NCC(=O)N[C@@H](CCCCN)C(=O)N[C@@H](CCCN=C(N)N)C(=O)N[C@@H](Cc1ccc(O)cc1)C(=O)N[C@@H](CCCCN)C(=O)N[C@@H](CCC(N)=O)C(=O)N[C@@H](CCCN=C(N)N)C(=O)N[C@H](C(=O)N[C@@H](CCCCN)C(=O)N[C@@H](CC(N)=O)C(=O)N[C@@H](CCCCN)C(N)=O)C(C)C)C(C)C)C(C)C)[C@@H](C)O (stereo partly drawn) [PACAP(2-38)] (H-SDG[Ile(3ξ)]FTDSYSRYRKQMAVKKYLAAVLGKRYKQRVKNK-NH2)
0.0003	0.0015 µM and 0.0005 µM and 0.001 µM	CC[C@H](C)[C@H](NC(=O)CNC(=O)[C@H](CCC(=O)O)NC(=O)[C@H](CO)NC(=O)[C@@H](N)Cc1cnc[nH]1)C(=O)N[C@@H](Cc1ccccc1)C(=O)N[C@H](C(=O)N[C@@H](CC(=O)O)C(=O)N[C@@H](CO)C(=O)N[C@@H](Cc1ccc(O)cc1)C(=O)N[C@@H](CO)C(=O)N[C@@H](CCCNC(=N)N)C(=O)N[C@@H](Cc1ccc(O)cc1)C(=O)N[C@@H](CCCNC(=N)N)C(=O)N[C@@H](CCCCN)C(=O)N[C@@H](CCC(N)=O)C(=O)N[C@@H](CCSC)C(=O)N[C@@H](C)C(=O)N[C@H](C(=O)N[C@@H](CCCCN)C(=O)N[C@@H](CCCCN)C(=O)N[C@@H](Cc1ccc(O)cc1)C(=O)N[C@@H](CC(C)C)C(=O)N[C@@H](C)C(=O)N[C@@H](C)C(=O)N[C@H](C(=O)N[C@@H](CC(C)C)C(N)=O)C(C)C)C(C)C)[C@@H](C)O [PACAP(1-27)]
